Laboratory results: patent US8426437B2, “Pyrroloquinoline derivatives and their use as protein kinases inhibitors” (Pierre Fabre Medicament, priority 2005, dated 2013)
Structures can show the parent of a compound that is named as a salt.

Tests used:
Format in all cases: biochemical
[1] = molecular target: T1, RET (Homo sapiens, UniProt P07949); test: Inhibition of RET kinase activity, recombinant RET method (Kinase-Glo); conditions: RET 2 μg/ml, poly-EY4 substrate, 20 μM ATP, two hours at 30° C.
T1 construct: purchased Upstate 14-570MG
T1 sequence (P07949 29-1114): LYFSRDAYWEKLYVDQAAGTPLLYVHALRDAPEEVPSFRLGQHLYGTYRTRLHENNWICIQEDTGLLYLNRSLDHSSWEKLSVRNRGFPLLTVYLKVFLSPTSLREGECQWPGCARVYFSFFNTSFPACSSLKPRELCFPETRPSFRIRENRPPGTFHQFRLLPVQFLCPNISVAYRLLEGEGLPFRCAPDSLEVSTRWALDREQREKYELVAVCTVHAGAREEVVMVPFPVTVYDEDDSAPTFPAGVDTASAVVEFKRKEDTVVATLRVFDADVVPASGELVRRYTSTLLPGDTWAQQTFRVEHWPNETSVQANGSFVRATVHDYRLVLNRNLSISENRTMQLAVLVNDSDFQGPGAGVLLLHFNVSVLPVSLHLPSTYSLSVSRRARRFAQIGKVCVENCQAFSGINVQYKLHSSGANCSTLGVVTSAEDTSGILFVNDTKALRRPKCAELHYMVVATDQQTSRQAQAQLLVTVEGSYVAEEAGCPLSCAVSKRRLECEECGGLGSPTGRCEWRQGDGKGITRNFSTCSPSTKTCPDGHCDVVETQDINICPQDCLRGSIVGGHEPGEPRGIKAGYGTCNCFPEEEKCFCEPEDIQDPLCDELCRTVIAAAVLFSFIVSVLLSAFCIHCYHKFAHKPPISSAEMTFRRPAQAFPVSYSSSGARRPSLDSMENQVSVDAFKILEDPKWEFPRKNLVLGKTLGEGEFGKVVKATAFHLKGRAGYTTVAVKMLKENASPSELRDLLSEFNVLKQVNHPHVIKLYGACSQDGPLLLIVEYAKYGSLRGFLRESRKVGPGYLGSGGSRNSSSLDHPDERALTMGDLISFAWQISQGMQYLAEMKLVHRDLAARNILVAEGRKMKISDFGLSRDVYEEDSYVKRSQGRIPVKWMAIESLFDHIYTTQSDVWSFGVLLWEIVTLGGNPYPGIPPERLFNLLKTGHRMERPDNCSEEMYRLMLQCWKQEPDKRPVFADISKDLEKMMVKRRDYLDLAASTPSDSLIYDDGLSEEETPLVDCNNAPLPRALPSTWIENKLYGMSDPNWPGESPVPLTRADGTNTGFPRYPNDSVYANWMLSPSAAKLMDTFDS
Procedure, shortened: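 Recombinant RET at 2 μg/ml in 20 mM MOPS/NaOH pH 7.0, 1 mM EDTA, 5% glycerol, 0.01% Brij35, 0.1% 2-mercaptoethanol, 1 mg/ml BSA; compounds 10 nM–30 μM final.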

[2] = molecular target: ALK (Homo sapiens, UniProt Q9UM73); test: Inhibition of kinase ALK (PLCγ1-GST substrate, anti-phosphotyrosine ELISA); conditions: ALK 180 ng/ml, 250 μM ATP, 30 minutes at 30° C.
ALK, sequence (Q9UM73 19-1620, species assumed): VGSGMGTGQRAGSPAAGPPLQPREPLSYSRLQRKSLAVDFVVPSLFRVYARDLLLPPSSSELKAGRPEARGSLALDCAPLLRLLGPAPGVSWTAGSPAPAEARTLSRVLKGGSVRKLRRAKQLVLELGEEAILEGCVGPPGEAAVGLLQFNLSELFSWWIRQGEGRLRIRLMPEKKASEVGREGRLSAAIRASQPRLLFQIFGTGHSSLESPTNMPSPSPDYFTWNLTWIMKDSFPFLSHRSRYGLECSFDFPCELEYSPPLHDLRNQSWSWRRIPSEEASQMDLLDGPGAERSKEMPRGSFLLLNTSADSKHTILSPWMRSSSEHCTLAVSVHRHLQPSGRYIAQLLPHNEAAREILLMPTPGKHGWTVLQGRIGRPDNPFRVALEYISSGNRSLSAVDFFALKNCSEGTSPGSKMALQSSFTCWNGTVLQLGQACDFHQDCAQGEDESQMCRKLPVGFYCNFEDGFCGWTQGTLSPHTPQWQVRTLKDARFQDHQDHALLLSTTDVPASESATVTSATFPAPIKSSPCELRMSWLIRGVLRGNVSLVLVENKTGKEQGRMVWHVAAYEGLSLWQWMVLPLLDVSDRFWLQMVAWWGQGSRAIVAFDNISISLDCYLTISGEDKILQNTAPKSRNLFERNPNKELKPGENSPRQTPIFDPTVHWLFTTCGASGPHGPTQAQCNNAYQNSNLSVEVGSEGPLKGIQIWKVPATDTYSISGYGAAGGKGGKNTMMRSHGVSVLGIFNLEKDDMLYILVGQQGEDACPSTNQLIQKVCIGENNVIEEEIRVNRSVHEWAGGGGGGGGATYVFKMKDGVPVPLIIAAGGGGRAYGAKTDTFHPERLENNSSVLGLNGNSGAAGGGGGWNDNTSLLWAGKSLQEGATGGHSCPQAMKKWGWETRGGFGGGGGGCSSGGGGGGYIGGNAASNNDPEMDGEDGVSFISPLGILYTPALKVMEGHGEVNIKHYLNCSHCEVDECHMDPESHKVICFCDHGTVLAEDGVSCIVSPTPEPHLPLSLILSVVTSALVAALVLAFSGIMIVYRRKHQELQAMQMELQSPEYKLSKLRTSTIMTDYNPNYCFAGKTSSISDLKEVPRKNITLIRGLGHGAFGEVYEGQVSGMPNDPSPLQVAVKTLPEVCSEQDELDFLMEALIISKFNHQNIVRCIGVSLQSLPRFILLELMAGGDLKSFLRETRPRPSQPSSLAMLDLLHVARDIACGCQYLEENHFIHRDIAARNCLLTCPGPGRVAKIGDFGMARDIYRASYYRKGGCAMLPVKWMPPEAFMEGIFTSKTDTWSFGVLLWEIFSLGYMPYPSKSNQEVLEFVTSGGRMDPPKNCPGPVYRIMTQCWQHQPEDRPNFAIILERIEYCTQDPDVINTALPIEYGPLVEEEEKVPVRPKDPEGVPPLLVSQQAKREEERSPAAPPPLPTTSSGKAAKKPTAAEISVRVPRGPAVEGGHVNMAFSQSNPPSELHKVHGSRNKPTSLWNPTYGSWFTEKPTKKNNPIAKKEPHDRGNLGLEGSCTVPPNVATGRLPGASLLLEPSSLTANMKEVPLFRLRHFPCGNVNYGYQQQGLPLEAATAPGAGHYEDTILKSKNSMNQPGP
Description: Incubation is carried out for 30 minutes at 30° C. with agitation.
The signal is read in luminescent mode using a luminometer.

[3] = molecular target: T2, PIM-1 (Homo sapiens, UniProt P11309); test: Inhibition of kinase PIM-1 (Kinase-Glo); conditions: PIM-1 0.625 μg/ml, 10 μM ATP, forty minutes at 30° C.
T2 construct: purchased Upstate 14-573
T2 sequence (P11309 whole entry): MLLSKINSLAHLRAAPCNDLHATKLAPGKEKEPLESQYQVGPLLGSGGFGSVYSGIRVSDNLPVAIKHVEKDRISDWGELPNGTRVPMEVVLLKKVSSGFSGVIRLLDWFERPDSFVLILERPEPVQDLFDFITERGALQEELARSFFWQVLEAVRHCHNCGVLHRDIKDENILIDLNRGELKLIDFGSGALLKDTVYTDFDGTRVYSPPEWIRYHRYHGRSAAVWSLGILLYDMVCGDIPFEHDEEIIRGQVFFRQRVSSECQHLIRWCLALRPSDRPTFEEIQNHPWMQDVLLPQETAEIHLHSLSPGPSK
Procedure, shortened: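 PIM-1 (0.625 μg/ml) in MOPS/NaOH pH 7 with Mg acetate was run with 70 μM S6 kinase/Rsk2 peptide and 10 μM ATP, with compound at 10 nM–30 μM final.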

[4] = molecular target: T3, TrkA (Homo sapiens, UniProt P04629); test: Inhibition of kinase TrkA (Kinase-Glo); conditions: TrkA 4 μg/ml, 30 μM ATP, two hours at 30° C.
T3 construct: purchased Upstate 14-571
T3 sequence (P04629 33-796): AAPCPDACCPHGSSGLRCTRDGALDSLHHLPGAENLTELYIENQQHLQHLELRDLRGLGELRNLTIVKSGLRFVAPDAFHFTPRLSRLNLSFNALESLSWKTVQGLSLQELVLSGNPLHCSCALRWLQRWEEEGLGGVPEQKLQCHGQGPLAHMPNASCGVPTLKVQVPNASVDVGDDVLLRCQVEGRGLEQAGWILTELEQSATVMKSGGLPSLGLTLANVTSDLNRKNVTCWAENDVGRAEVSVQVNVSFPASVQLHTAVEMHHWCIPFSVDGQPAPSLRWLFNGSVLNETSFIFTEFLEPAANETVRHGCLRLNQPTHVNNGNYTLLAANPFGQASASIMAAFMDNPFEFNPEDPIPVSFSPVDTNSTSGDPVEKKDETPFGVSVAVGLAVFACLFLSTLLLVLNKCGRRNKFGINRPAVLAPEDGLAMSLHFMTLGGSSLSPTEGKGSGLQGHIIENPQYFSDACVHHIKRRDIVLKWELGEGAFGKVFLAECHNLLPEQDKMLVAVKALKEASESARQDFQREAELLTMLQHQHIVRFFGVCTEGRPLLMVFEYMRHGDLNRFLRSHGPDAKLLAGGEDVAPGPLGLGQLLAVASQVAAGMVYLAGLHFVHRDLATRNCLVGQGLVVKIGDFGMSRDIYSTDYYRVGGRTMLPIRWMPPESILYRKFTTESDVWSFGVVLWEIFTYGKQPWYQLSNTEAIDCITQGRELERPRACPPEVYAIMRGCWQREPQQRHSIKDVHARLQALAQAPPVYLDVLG
Description: Protein TrkA (Upstate 14-571; batch #25634U) is incubated at a concentration of 4 μg/ml in a buffer containing 8 mM of MOPS/NaOH pH7, 0.2 mM EDTA, 40 mM MgAc (Sigma #229768), 1 mM DTT (Fluka #43816), NaOV 1 mM, 0.01% Triton Tx100, in the presence of 1 mg/ml of peptide substrate poly-EY (Upstate #P0275), and 30 μM of ATP.
The dilution buffer for TrkA is as follows: 20 mM MOPS/NaOH pH7, 1 mM EDTA, 5% glycerol, 0.01% Brij35, 0.1% 2-mercapto, 1 mg/ml BSA.
(§1) The compound to be tested is first added to the enzyme to give a reaction volume of 50 μl. The dilution of the compounds of the invention is distributed so as to obtain a scale of final concentrations between 10 nM and 30 μM.
(§2) After incubation of the reaction mixture for two hours at 30° C., the level of ATP that remains is assayed using the Kinase-Glo Luminescent Kinase Assay (Promega #V6712) according to the conditions recommended by the supplier. The luminescence induced is read in a plate reader (Envision-Perkin Elmer).

[5] = molecular target: T4, TrkB (Homo sapiens, UniProt Q16620); test: Inhibition of kinase TrkB (Kinase-Glo); conditions: TrkB 4 μg/ml, 40 μM ATP, two hours at 30° C.
T4 construct: purchased Upstate 14-507
T4 sequence (Q16620 32-822): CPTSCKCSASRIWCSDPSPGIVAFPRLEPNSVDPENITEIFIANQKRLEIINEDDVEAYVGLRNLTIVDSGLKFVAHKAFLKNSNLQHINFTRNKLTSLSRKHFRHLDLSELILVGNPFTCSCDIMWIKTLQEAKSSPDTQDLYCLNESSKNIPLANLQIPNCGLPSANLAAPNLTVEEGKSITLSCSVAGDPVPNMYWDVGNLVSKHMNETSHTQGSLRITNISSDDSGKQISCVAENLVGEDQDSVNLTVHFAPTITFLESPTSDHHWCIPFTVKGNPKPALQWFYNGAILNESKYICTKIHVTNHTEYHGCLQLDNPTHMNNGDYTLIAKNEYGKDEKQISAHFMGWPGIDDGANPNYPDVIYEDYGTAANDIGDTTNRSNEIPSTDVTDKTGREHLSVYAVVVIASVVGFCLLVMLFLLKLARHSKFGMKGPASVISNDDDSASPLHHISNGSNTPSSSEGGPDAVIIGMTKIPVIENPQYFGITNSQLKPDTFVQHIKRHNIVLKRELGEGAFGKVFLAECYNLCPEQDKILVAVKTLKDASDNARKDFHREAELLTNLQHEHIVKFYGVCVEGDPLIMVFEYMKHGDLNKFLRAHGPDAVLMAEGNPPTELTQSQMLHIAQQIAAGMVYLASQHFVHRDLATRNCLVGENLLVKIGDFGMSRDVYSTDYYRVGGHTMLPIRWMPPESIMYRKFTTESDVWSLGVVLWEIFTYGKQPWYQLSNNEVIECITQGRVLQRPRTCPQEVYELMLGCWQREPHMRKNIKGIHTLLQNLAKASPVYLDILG
Description: Protein TrkB (Upstate 14-507; batch #25578U) is incubated at a concentration of 4 μg/ml in a buffer containing 8 mM of MOPS/NaOH pH7, 0.2 mM EDTA, 40 mM MgAc (Sigma #229768), 1 mM DTT (Fluka #43816), NaOV 1 mM, 25 mM 2-glycerolphosphate (Sigma #G9891), in the presence of 2.5 mg/ml of peptide substrate poly-EY (Upstate #P0275), and 40 μM of ATP.
The dilution buffer for TrkB is as follows: 20 mM MOPS/NaOH pH7, 1 mM EDTA, 5% glycerol, 0.01% Brij35, 0.1% 2-mercapto, 1 mg/ml BSA.
as §1, §2

Structure (SMILES)	IC50 [1] [µM]	IC50 [2] [µM]	IC50 [3] [µM]	IC50 [4] [µM]	IC50 [5] [µM]
CCOC(=O)c1c[nH]c2c(=O)[nH]c3ccc(S(=O)(=O)NCCCN(C)C)cc3c12 [Compound 32, 8-(3-Dimethylamino-propylsulfamoyl)-4-oxo-4,5-dihydro-3H-pyrrolo[2,3-c]quinoline-1-ethyl carboxylate]	0.1 to 1	10 to 100	10 to 100		
CCOC(=O)c1c[nH]c2c(=O)[nH]c3ccc(S(=O)(=O)NCCCCN)cc3c12 [Compound 33, 8-(4-Amino-butylsulfamoyl)-4-oxo-4,5-dihydro-3H-pyrrolo[2,3-c]quinoline-1-ethyl carboxylate]	0.1 to 1	1 to 10	10 to 100		
CCOC(=O)c1c[nH]c2c(=O)[nH]c3ccc(S(=O)(=O)NC4CCNCC4)cc3c12 [Compound 91, 4-oxo-8-(piperidin-4-ylsulfamoyl)-4,5-dihydro-3H-pyrrolo[2,3-c]quinoline-1-ethyl carboxylate]	0.1 to 1	0.1 to 1	1 to 10		
CCOC(=O)c1c[nH]c2c(=O)[nH]c3ccc(S(=O)(=O)N4CC5CNCC5C4)cc3c12 (stereo not shown) [Compound 93, 8-(Octahydro-pyrrolo[3,4-c]pyrrole-2-sulfonyl)-4-oxo-4,5-dihydro-3H-pyrrolo[2,3-c]quinoline-1-ethyl carboxylate]	0.1 to 1	0.1 to 1	1 to 10		
CCOC(=O)c1c[nH]c2c(=O)[nH]c3ccc(S(=O)(=O)NC[C@H]4CCNC4)cc3c12 [Compound 97, (S)-4-Oxo-8-[(pyrrolidin-3-methyl)-sulfamoyl]-4,5-dihydro-3H-pyrrolo[2,3-c]quinoline-1-ethyl carboxylate]	0.1 to 1	0.1 to 1	10 to 100		
COC(=O)c1c[nH]c2c(=O)[nH]c3ccc(S(=O)(=O)NC4CCCNC4)cc3c12 (stereo not shown) [Compound 112, 4-Oxo-8-(piperidin-3-ylsulfamoyl)-4,5-dihydro-3H-pyrrolo[2,3-c]quinoline-1-methyl carboxylate]	1 to 10	0.1 to 1	1 to 10		
COC(=O)c1c[nH]c2c(=O)[nH]c3ccc(S(=O)(=O)NC4CCNCC4)cc3c12 [Compound 113, 4-Oxo-8-(piperidin-4-ylsulfamoyl)-4,5-dihydro-3H-pyrrolo[2,3-c]quinoline-1-methyl carboxylate]	0.1 to 1	1 to 10	1 to 10		
CCOC(=O)c1c[nH]c2c(=O)[nH]c3ccc(C(=O)N(C[C@@H]4CCCN4)C4CC4)cc3c12 [Compound 219, (S)-8-(cyclopropyl-pyrrolidin-2-ylmethyl-carbamoyl), 3-oxo-4,5-dihydro-3H-pyrrolo[2,3-c]quinoline-1-ethyl carboxylate hydrochloride]	1 to 10	1 to 10			
CCOC(=O)c1c[nH]c2c(=O)[nH]c3ccc(-c4csc(Nc5ccccc5)n4)cc3c12 [Compound 271, 4-Oxo-8-(2-phenylamino-thiazol-4-yl)-4,5-dihydro-3H-pyrrolo[2,3-c]quinoline-1-ethyl carboxylate]	0.1 to 1	0.1 to 1	10 to 100	1 to 10	1 to 10
